Measured values from PubChem BioAssay AID248 (DTP/NCI, 2004).
Where “and” joins values, the source holds several entries; their conditions need not be identical. Equal values may be shown once. Inconclusive results and toxic doses are left out. Rule as the data show it: active = T/C of 150% or more; inactive = T/C below 125%.

Tested on: L1210 leukemia ip in BDF1 mice, survival T/C
Assay: NCI In Vivo Anticancer Drug Screen. Data for tumor model L1210 Leukemia (intraperitoneal) in B6D2F1 (BDF1) mice
Conditions: endpoint: mean survival time, higher = longer survival
Outline: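 Value reflects the ratio of survival in compound-treated mice to survival in vehicle-treated controls, with both groups carrying the same transplanted tumor.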

[1] = dose: 100.0 mg/kg/injection, schedule: Q01DX001 (ip), vehicle: saline
[2] = dose: 100.0 mg/kg/injection, schedule: Q04DX003 (ip), vehicle: saline
[3] = dose: 200.0 mg/kg/injection, schedule: Q01DX001 (ip), vehicle: saline
[4] = dose: 200.0 mg/kg/injection, schedule: Q04DX003 (ip), vehicle: saline
[5] = dose: 400.0 mg/kg/injection, schedule: Q01DX001 (ip), vehicle: saline
[6] = dose: 400.0 mg/kg/injection, schedule: Q04DX003 (ip), vehicle: saline
[7] = dose: 100.0 mg/kg/injection, schedule: Q04DX002 (ip), vehicle: saline with Tween-80
[8] = dose: 200.0 mg/kg/injection, schedule: Q04DX002 (ip), vehicle: saline with Tween-80
[9] = dose: 400.0 mg/kg/injection, schedule: Q04DX002 (ip), vehicle: saline with Tween-80
[10] = dose: 50.0 mg/kg/injection, schedule: Q01DX009 (ip), vehicle: saline with Tween-80
[11] = dose: 75.0 mg/kg/injection, schedule: Q01DX001 (ip), vehicle: saline
[12] = dose: 100.0 mg/kg/injection, schedule: Q01DX009 (ip), vehicle: saline with Tween-80
[13] = dose: 150.0 mg/kg/injection, schedule: Q01DX001 (ip), vehicle: saline
[14] = dose: 200.0 mg/kg/injection, schedule: Q01DX009 (ip), vehicle: saline with Tween-80
[15] = dose: 100.0 mg/kg/injection, schedule: Q01DX001 (ip), vehicle: saline with Tween-80
[16] = dose: 200.0 mg/kg/injection, schedule: Q01DX001 (ip), vehicle: saline with Tween-80
[17] = dose: 400.0 mg/kg/injection, schedule: Q01DX001 (ip), vehicle: saline with Tween-80
[18] = dose: 100.0 mg/kg/injection, schedule: Q01DX009 (ip), vehicle: Klucel (hydroxypropylcellulose) (HPC)
[19] = dose: 200.0 mg/kg/injection, schedule: Q01DX009 (ip), vehicle: Klucel (hydroxypropylcellulose) (HPC)
[20] = dose: 400.0 mg/kg/injection, schedule: Q01DX009 (ip), vehicle: Klucel (hydroxypropylcellulose) (HPC)
[21] = dose: 100.0 mg/kg/injection, schedule: Q01DX001 (ip), vehicle: carboxymethylcellulose (CMC)
[22] = dose: 200.0 mg/kg/injection, schedule: Q01DX001 (ip), vehicle: carboxymethylcellulose (CMC)
[23] = dose: 400.0 mg/kg/injection, schedule: Q01DX001 (ip), vehicle: carboxymethylcellulose (CMC)

Measured: T/C

COc1ccc(/C=C2\CN(CCC(=O)O)C(=O)C2=O)cc1
inactive: [1] 103 % of control | [2] 98 % of control | [3] 98 % of control | [4] 98 % of control | [5] 98 % of control | [6] 98 % of control

CCOC(=N)C(O)c1ccccc1 (configuration not stated)
inactive: [7] 111 % of control | [8] 100 % of control | [9] 100 % of control

CCOC(=O)C=C1CCN(C)CC1
inactive: [10] 104 % of control | [11] 97 % of control | [12] 98 % of control | [13] 103 % of control | [14] 97 % of control | dose: 300.0 mg/kg/injection, schedule: Q01DX001 (ip), vehicle: saline 101 % of control

COc1ccc(Cc2nnc(Cc3ccc(OC)c(OC)c3)nn2)cc1OC
inactive: [10] 89 % of control | [12] 93 % of control | [14] 87 % of control

COc1ccc(OC)c(NC(=O)c2ccc(Cl)c(Cl)c2)c1
inactive: [15] 106 % of control | [12] 93 % of control and 98 % of control | [7] 97 % of control and 99 % of control | dose: 100.0 mg/kg/injection, schedule: Q04DX003 (ip), vehicle: saline with Tween-80 105 % of control | [16] 101 % of control | [14] 97 % of control and 102 % of control | [8] 108 % of control and 89 % of control | dose: 200.0 mg/kg/injection, schedule: Q04DX003 (ip), vehicle: saline with Tween-80 108 % of control | [17] 108 % of control | dose: 400.0 mg/kg/injection, schedule: Q01DX009 (ip), vehicle: saline with Tween-80 111 % of control | [9] 104 % of control and 91 % of control | dose: 400.0 mg/kg/injection, schedule: Q04DX003 (ip), vehicle: saline with Tween-80 89 % of control

COc1cc2c(cc1OC)/C(=C\C#N)NCC2
inactive: [1] 98 % of control | [3] 98 % of control | [5] 100 % of control

CC1(C)C(=C(C#N)C#N)C(C)(C)C1=C(C#N)C#N
inactive: [1] 114 % of control | [3] 96 % of control | [5] 90 % of control

Cc1nc(C)c(I)s1
inactive: [18] 93 % of control | dose: 100.0 mg/kg/injection, schedule: Q04DX003 (ip), vehicle: Klucel (hydroxypropylcellulose) (HPC) 98 % of control | [19] 97 % of control | dose: 200.0 mg/kg/injection, schedule: Q04DX003 (ip), vehicle: Klucel (hydroxypropylcellulose) (HPC) 93 % of control | [20] 94 % of control | dose: 400.0 mg/kg/injection, schedule: Q04DX003 (ip), vehicle: Klucel (hydroxypropylcellulose) (HPC) 104 % of control

CCCCCCCCC[n+]1cccc(C#N)c1
inactive: dose: 18.75 mg/kg/injection, schedule: Q01DX009 (ip), vehicle: saline 90 % of control | dose: 37.5 mg/kg/injection, schedule: Q01DX009 (ip), vehicle: saline 88 % of control | dose: 37.5 mg/kg/injection, schedule: Q04DX003 (ip), vehicle: acetone 100 % of control | [11] 100 % of control | dose: 75.0 mg/kg/injection, schedule: Q01DX009 (ip), vehicle: saline 90 % of control | dose: 75.0 mg/kg/injection, schedule: Q04DX003 (ip), vehicle: acetone 97 % of control | [13] 102 % of control | dose: 150.0 mg/kg/injection, schedule: Q04DX003 (ip), vehicle: acetone 105 % of control

CC(=O)Nc1ccc(/C=N/NC(=O)C(O)(c2ccccc2)c2ccccc2)cc1
inactive: [21] 97 % of control | [22] 103 % of control | [23] 97 % of control

O=C(N/N=C/c1ccc(Cl)cc1)c1cccc([N+](=O)[O-])c1
inactive: [18] 94 % of control | [19] 94 % of control | [20] 95 % of control

O=[N+]([O-])c1ccc(/C=N/N2CCOCC2)s1
inactive: [2] 102 % of control | [4] 97 % of control | [6] 102 % of control

O=CC1CO1 (configuration not stated)
inactive: dose: 29.0 mg/kg/injection, schedule: Q01DX Z (ip), vehicle: steriod suspending solution 97 % of control | dose: 44.0 mg/kg/injection, schedule: Q01DX Z (ip), vehicle: steriod suspending solution 99 % of control | dose: 66.0 mg/kg/injection, schedule: Q01DX Z (ip), vehicle: steriod suspending solution 106 % of control

CCOC(=O)C(=O)NCc1cnccn1
inactive: dose: 100.0 mg/kg/injection, schedule: Q01DX009 (ip), vehicle: water 103 % of control | dose: 100.0 mg/kg/injection, schedule: Q04DX003 (ip), vehicle: water 91 % of control | dose: 200.0 mg/kg/injection, schedule: Q01DX009 (ip), vehicle: water 101 % of control and 107 % of control | dose: 200.0 mg/kg/injection, schedule: Q04DX003 (ip), vehicle: water 94 % of control | dose: 400.0 mg/kg/injection, schedule: Q01DX009 (ip), vehicle: water 94 % of control and 110 % of control | dose: 400.0 mg/kg/injection, schedule: Q04DX003 (ip), vehicle: water 104 % of control

O=C1c2ccccc2C(=O)c2cc(-c3ccccc3)ccc21
inactive: [15] 90 % of control | [16] 93 % of control | [17] 87 % of control

c1ccc2oc(N3CCN(c4nc5ccccc5o4)CC3)nc2c1
inactive: [21] 102 % of control | [22] 91 % of control | [23] 88 % of control

NCCc1c[nH]c2ccc(O)cc12 (tested in a mixture with another compound)
inactive: dose: 120.0 mg/kg/injection, schedule: Q01DX009 (ip), vehicle: carboxymethylcellulose (CMC) 107 % of control | [23] 108 % of control | dose: 600.0 mg/kg/injection, schedule: Q01DX001 (ip), vehicle: carboxymethylcellulose (CMC) 108 % of control | dose: 600.0 mg/kg/injection, schedule: Q01DX009 (ip), vehicle: carboxymethylcellulose (CMC) 102 % of control | dose: 800.0 mg/kg/injection, schedule: Q01DX001 (ip), vehicle: carboxymethylcellulose (CMC) 114 % of control | dose: 800.0 mg/kg/injection, schedule: Q01DX009 (ip), vehicle: carboxymethylcellulose (CMC) 119 % of control | dose: 1000.0 mg/kg/injection, schedule: Q01DX001 (ip), vehicle: carboxymethylcellulose (CMC) 106 % of control

N=C([Se])c1cn(C2OC(CO)C(O)C2O)c2ncnc(N)c12 (configuration not stated)
inactive: dose: 0.09 mg/kg/injection, schedule: Q01DX009 (ip), vehicle: saline 109 % of control | dose: 0.19 mg/kg/injection, schedule: Q01DX005 (ip), vehicle: saline 119 % of control | dose: 0.19 mg/kg/injection, schedule: Q01DX009 (ip), vehicle: saline 108 % of control | dose: 0.39 mg/kg/injection, schedule: Q01DX005 (ip), vehicle: saline 117 % of control | dose: 0.39 mg/kg/injection, schedule: Q01DX009 (ip), vehicle: saline 104 % of control | dose: 0.78 mg/kg/injection, schedule: Q01DX005 (ip), vehicle: saline 106 % of control
